Assay results published in US20150157584A1, “INHIBITORS OF HIPPO-YAP SIGNALING PATHWAY” (The Regents of the University of California, priority 2012, published 2015).
Like-named read-outs stand apart in the source and are kept apart here.

Columns and labels:
YAP/TAZ [1] = assay: immunoblotting / phos-tag gels of YAP/TAZ phosphorylation in cultured cell lines; format: cell-based, human; settings: for YAP/TAZ dephosphorylation, time course: 1 μM for indicated times; for YAP dephosphorylation, different doses: different doses of LPA, S1P, LPC or PA for 1 h
Method: Immunoblotting was performed using standard protocol. […] The phos-tag reagents were purchased from Wako Chemicals, and gels containing phos-tag were prepared according to manufacture's instructions. YAP proteins can be separated into multiple bands in the presence of phos-tag depending on differential phosphorylation levels, with phosphorylated proteins run migrate slower.
(§1) Immunoblotting was performed using standard protocol. Antibodies for pYAP (S127), YAP, TAZ (V386), pCREB, CREB, pMLC2 (S19), pMLC2 (T18/S19), MST1, MST2, and Lats1 were from Cell Signaling Technology. Lats2 antibody was from Bethyl laboratories. HA-HRP, GFP, and MLC2 antibodies were from Santa Cruz biotechnology. Tubulin, HSP90 and Flag-HRP were purchased from Sigma Aldrich. PKA antibody was obtained from BD biosciences. GAPDH antibody was a gift from Dr. Yan Luo. Yki antibody was a gift from Dr. Kenneth Irvine. The phos-tag reagents were purchased from Wako Chemicals, and gels containing phos-tag and MnC12 were prepared according to manufacturer's instructions. YAP proteins can be separated into multiple bands on phos-tag gels, with the phosphorylated form of YAP proteins migrating at a slower speed.

CTGF = assay: expression of YAP/TAZ target gene CTGF; format: cell-based, human; settings: HEK293A
Method: (§2) Immunoblotting was performed using standard protocol. Antibodies for pYAP (S127), pYAP(S381/384), pMST1/2, TAZ, pERK, ERK1/2, Lats1, MST1, pAKT (S473), pS6K, S6K were from Cell Signaling, antibodies for YAP (H-125), CTGF, Cyr61, Gq/11, G13 and 14-3-3θ were from Santa Cruz, TEAD1 antibody was from BD biosciences, pTAZ (S89) antibody was in-house raised, GAPDH antibody was a gift from Dr. Yan Luo. The phos-tag reagents were purchased from Wako Chemicals, and gels containing phos-tag were prepared according to manufacture's instructions. YAP proteins can be separated into multiple bands in the presence of phos-tag depending on differential phosphorylation levels, with phosphorylated proteins run migrate slower.
Following various treatments, cells were washed with cold phosphate-buffered saline and subjected to RNA extraction using an RNeasy Plus mini kit (Qiagen). […] Complementary DNA was then diluted and used for quantification (with β-actin gene as a control) by real-time PCR, which was performed using KAPA SYBR FAST qPCR master mix (Kapa Biosystems) and the 7300 real-time PCR system (Applied Biosystems). […]
RNA extraction, reverse transcription and real-time PCR. […] After dilution, cDNA levels were quantified by real-time PCR using KAPA SYBR FAST qPCR master mix (Kapa Biosystems) and the 7300 real-time PCR system (Applied Biosystems). […]

YAP/TAZ [2] = assay: immunoblotting of YAP/TAZ phosphorylation in mouse cells (primary hepatocytes, 3T3-L1); format: cell-based; settings: for TAZ protein level / YAP phosphorylation: 3T3-L1, 10 μM forskolin, 100 μM IBMX or 5 μM KT5720, 1 hr
Method: as §2, §1

3T3-L1 cells = assay: adipogenesis of 3T3-L1 cells (oil red staining); format: cell-based, mouse; settings: 3T3-L1 with insulin, dexamethasone, troglitazone; IBMX 250 μM; KT5720 5 μM
Method: Adipogenesis. Murine 3T3-L1 cells were maintained in DMEM medium containing 10% calf serum (Hyclone). To initiate adipocyte differentiation, confluent 3T3-L1 cells switched into FBS containing DMEM medium; in addition, insulin, dexamethasone, troglitazone (Tro) were added; in selected samples, IBMX (250 μM) or forskolin (100 μM) were used to increase cAMP and PKA activity. For experiments using KT5720, 3T3-L1 cells were pre-treated with KT5720 (5 μM) overnight in advance and fresh KT5720 was added when adipogenesis was initiated. Two days later, medium was changed into DMEM containing 10% FBS and insulin. And after another two days, cells were incubated in DMEM with FBS. Cells were typically harvested on day 6 depending on the formation and maturation of lipid droplets. Cells were then subjected to RNA extraction or oil red (Sigma Aldrich) staining according to manufacturer's instructions.

YAP [3] = assay: YAP immunoprecipitation with TEAD1 and 14-3-3; format: cell-based, human; settings: HEK293A
Method: (§3) Cells were lysed using mild lysis buffer (50 mM HEPES at pH 7.5, 150 mM NaCl, 1 mM EDTA, 1% NP-40, 10 mM pyrophosphate, 10 mM glycerophosphate, 50 mM NaF, 1.5 mM Na3VO4, protease inhibitor cocktail [Roche], 1 mM PMSF). Cell lysates were centrifuged for 10 min at 4° C., and supernatants were used for immunoprecipitation. YAP (Bethyl Laboratories) antibody was mixed with the supernatant for 1 h, and protein A-agarose beads were added in for 1 h. Immunoprecipitates were washed four times with lysis buffer, and proteins were eluted with SDS-PAGE sample buffer. For kinase assay, MST1, Lats1 or HA-Lats2 was immunoprecipitated similarly using MST1, Lats1 (Cell Signaling) or HA (Covance) antibodies.

Lats1 [4] = assay: Lats1 immunoprecipitation kinase assay with GST-YAP substrate; format: cell-based, human
Method: Cells were lysed using mild lysis buffer (50 mM HEPES at pH 7.5, 150 mM NaCl, 1 mM EDTA, 1% NP-40, 10 mM pyrophosphate, 10 mM glycerophosphate, 50 mM NaF, 1.5 mM Na3VO4, protease inhibitor cocktail [Roche], 1 mM PMSF). Cell lysates were cleared and used for immunoprecipitation. Lats1 antibody (Cell Signaling Technology) was mixed with cell lysates for 1 hr at 4° C., and then protein A agarose beads were added in for 1 hr. After four washes with lysis buffer, beads were washed once with wash buffer (40 mM HEPES, 200 mM NaCl) and once with kinase assay buffer (30 mM HEPES, 50 mM potassium acetate, 5 mM MgCl2). The immunoprecipitated Lats1 was then subjected to a kinase assay in the presence of 500 μM cold ATP, 10 μCi [γ-32P] ATP, and 1 μg of GST-YAP expressed and purified from Escherichia coli as substrate. The reaction mixtures were incubated for 30 min at 30° C., terminated with SDS sample buffer, and subjected to SDS-PAGE and immunoblotting.

Mst1/2 = assay: Mst kinase activity and phosphorylation in treated cells; format: cell-based, human
Method: Following immunoprecipitation, protein beads were washed once with wash buffer (40 mM HEPES, 200 mM NaCl) and once with kinase assay buffer (30 mM HEPES, 50 mM potassium acetate, 5 mM MgCl2). The immunoprecipitated Mst1 was subjected to a kinase assay in the presence of 500 μM cold ATP, 10 μCi [γ-^32P] ATP, and 1 μg of GST-Mob expressed and purified from Escherichia coli as substrate. The reaction mixtures were incubated for 30 min at 30° C., terminated with SDS sample buffer, and subjected to SDS-PAGE and autoradiography. Lats1 or HA-Lats2 kinase assays were performed similarly but using GST-YAP as substrates in the absence of [γ-^32P] ATP. The phosphorylation of GST-YAP at S127 was determined by immunoblotting using pYAP antibody.

YAP [5] = assay: immunofluorescence staining of YAP subcellular localization; format: cell-based, human
Method: HEK293A or MCF10A cells were seeded on coverslips. After treatment, cells were fixed with 4% paraformaldehyde-PBS for 15 min and permeabilized with 0.1% Triton X-100 in TBS. After blocking in 3% FBS in PBS for 30 min, cells were incubated with primary antibodies overnight at 4° C. After three washes with PBS, cells were incubated with Alexa Fluor 488- or 555-conjugated secondary antibodies (Invitrogen, 1:1000 dilution) for 2 h at room temperature. Slides were then washed three times and mounted. Immunofluorescence was detected using Olympus confocal microscopy. Primary antibodies used were: YAP (H-125) and YAP (63.7) from Santa Cruz, HA from Covance, β-catenin from BD biosciences. Phalloidin alexa 488 was used to stain actin filaments. For paraffin-embedded tissues from control or LPA receptor transgenic mammary glands, 5 μm sections were prepared and subjected for immunostaining Following deparaffinization and hydration, slides were heated in sub-boiling buffer (10 mM sodium citrate, pH 6.0) for 15 min for antigen retrieval. TAZ antibody (H-70) from Santa Cruz was used to as primary antibody.

Lats1 [6] = assay: Lats1 phosphorylation (S909, T1079) by immunoblotting; format: cell-based, human; settings: HEK293A; LPA 1 μM, 1 h
Method: as §3
as §2, with “YAP proteins can be separated into multiple bands in the presence of phos-tag depending on differential phosphorylation levels, with phosphorylated proteins run migrate slower.” left out

HEK293A cells = assay: cell proliferation assay, HEK293A; format: cell-based, human; settings: 10 μM LPA, replenished every day
Method: HEK293A cells (expressing control shRNA or YAP/TAZ shRNA, 2×10^5) in serum-free media were maintained in the presence or absence of 10 μM LPA for 1, 2 or 3 day. Cell numbers were determined daily using a cell counter (Bio-Rad). LPA was replenished every day.

YAP [7] = settings: mouse, in vivo, ip
Method: A protocol for epinephrine intraperitoneal (IP) injection in mice was approved by UCSD Institutional Animal Care and Use Committee. Fed male mice at 12 weeks of age were anesthetized. Control animals received an IP injection of propranolol (4 mg/100 g body weight) for 15 min. The test animals IP injected with epinephrine (75 μg/100 g body weight) for 15 min. […] The mice were sacrificed rapidly by cervical dislocation and the heart was harvested and immediately frozen in liquid nitrogen. Samples were stored at −80° C. until use. Frozen tissues were pulverized in liquid nitrogen. All of the subsequent steps were performed at 4° C. Powdered tissue samples were homogenized in 10 volumes (weight/volume) of buffer containing 50 mM Tris-HCl pH 7.6, 10 mM EDTA, 2 mM EGTA, 100 mM NaF, Protease inhibitor cocktail (1 mM Pefabloc, 1 mM benzamidine HCl, 1 μM leupeptin, and 1 μM E64), 1 mM PMSF, 0.2% Tritonx 100, 1 mM Na3VO4, 20 mM beta-glycerophosphate, 1 mM sodium pyrophosphate, and 50 nM calyculin A, using a tissue tearor. Homogenates were then centrifuged at 3,800 g for 10 min twice, and approximately 10 μg of protein, determined by Bradford, of the resultant supernatants were used for Western blot analysis.

CREB = CREB phosphorylation by immunoblotting; format: cell-based, human
Method: as §2
as §1, with “YAP proteins can be separated into multiple bands on phos-tag gels, with the phosphorylated form of YAP proteins migrating at a slower speed.” left out

CCCCCCCCCCCCC/C=C/[C@@H](O)[C@@H](N)COP(=O)(O)O [S1P, sphingosine 1-phosphate] was tested, and the “YAP/TAZ dephosphorylation, time course” value (YAP/TAZ [1]; HEK293A) was “potently induced YAP/TAZ dephosphorylation”, the “YAP dephosphorylation, different doses” value (YAP/TAZ [1]; HEK293A) was “potently induced” and the “expression of CTGF” value (CTGF) was “induced”.

For CC(C)Cn1c(=O)n(C)c(=O)c2[nH]cnc21 [IBMX], the “YAP phosphorylation by PDE inhibitors” value (YAP/TAZ [1]; MDA-MB-231, ibudilast 100 μM, IBMX 100 μM, rolipram 50 μM, theophylline 1 mM, 1 hr) was “induced YAP phosphorylation”, the TAZ protein level (YAP/TAZ [2]) was “decreased” and the YAP phosphorylation (YAP/TAZ [2]) was “induced”. The adipogenesis (3T3-L1 cells) was “induced”.

In the case of CCCCCCOC(=O)[C@]1(O)C[C@@H]2O[C@@]1(C)n1c3ccccc3c3c4c(c5c6ccccc6n2c5c31)C(=O)NC4 [KT5720], the YAP phosphorylation (YAP/TAZ [1]; MDA-MB-231, KT5720 5 μM) is reported as “decreased”, the “effect on forskolin- and epinephrine-induced YAP phosphorylation” value (YAP/TAZ [1]; MDA-MB-231, KT5720 5 μM 30 min, then 10 μM epinephrine or forskolin 1 hr) is reported as “largely blocked” and the TAZ protein level (YAP/TAZ [2]) is reported as “increased”. For the same compound, the YAP phosphorylation (YAP/TAZ [2]) was “repressed”, the “effect on glucagon-induced YAP phosphorylation” value (YAP/TAZ [2]; primary hepatocytes isolated from mice, KT5720) was “abolished” and the adipogenesis (3T3-L1 cells) was “inhibited”.

In the case of lysophosphatidic acid [LPA], the YAP-14-3-3 interaction (YAP [3]) is reported as “attenuated”, the “interaction between YAP and TEAD1” value (YAP [3]) is reported as “enhanced” and the Lats1 kinase activity (Lats1 [4]; HEK293A, serum or LPA) is reported as “rapidly inhibited”. The “phosphorylation of YAP S381/384” value (YAP/TAZ [1]; HEK293A transfected with GFP-YAP, LPA 1 h) was “decreased”, the “YAP/TAZ dephosphorylation, time course” value (YAP/TAZ [1]; HEK293A) was “rapid YAP/TAZ dephosphorylation” and the “dephosphorylation of YAP/TAZ by phospholipids” value (YAP/TAZ [1]; HEK293A, 100 μM lipid) was “strongly induced dephosphorylation”. The “concentration inducing complete YAP/TAZ dephosphorylation” value (YAP/TAZ [1]; HEK293A, 1 h) was 0.1 µM, the “concentration inducing partial YAP/TAZ dephosphorylation” value (YAP/TAZ [1]; HEK293A, 1 h) was 0.01 µM and the “YAP dephosphorylation, different doses” value (YAP/TAZ [1]; HEK293A) was “potently induced”. For the same compound, the “mutual effect of epinephrine and LPA on YAP phosphorylation” value (YAP/TAZ [1]; serum-starved U2OS, LPA, epinephrine or both, 1 h) was “antagonized each other's effect”, the “expression of CTGF” value (CTGF) was “induced” and the “phosphorylation of MST2 at T180” value (Mst1/2; HEK293A with Flag-MST2, LPA 0.2 or 1 μM, 1 h) was “not changed”. For the same compound, the Mst1 kinase activity (Mst1/2; HEK293A, FBS 1% or LPA 1 μM, GST-Mob substrate) was “no detectable effect”, the YAP nuclear localization (YAP [5]; HEK293A and MCF10A, 1 μM, 1 h) was “induced YAP nuclear localization” and the “time after LPA withdrawal at which YAP redistributed into cytoplasm” value (YAP [5]; MCF10A) was 30 min. The “phosphorylation of Lats1 at S909 and T1079” value (Lats1 [6]) was “decreased” and the “cell proliferation in serum free medium” value (HEK293A cells) was “strongly induced cell proliferation”.

CNC[C@H](O)c1ccc(O)c(O)c1 [epinephrine] was tested, and the “YAP phosphorylation in heart” value (YAP [7]) was “significantly increased”, the Lats1 activity (Lats1 [4]) was “increased” and the “YAP phosphorylation (Ser127, phos-tag), time course” value (YAP/TAZ [1]) was “transiently increased”. The “mutual effect of epinephrine and LPA on YAP phosphorylation” value (YAP/TAZ [1]) was “antagonized each other's effect”, the “phosphorylation of YAP” value (YAP/TAZ [1]) was “dose-dependent phosphorylation” and the “YAP localization (immunofluorescence)” value (YAP [5]) was “accumulation of cytoplasmic YAP”. The “phosphorylation of CREB” value (CREB) was “increased” and the “phosphorylation of CREB, time course” value (CREB) was “transient induction”.
